Test results: paper PMC7034088, “Effect of verapamil on the pharmacokinetics of hydroxycamptothecin and its potential mechanism” (Pharmaceutical Biology, 2020)
Read-outs that look alike come from different tables or passages of the source.

Assays:
[1] = In vivo pharmacokinetic study of oral HCPT in rats with or without verapamil pre-treatment; details: male, Sprague-Dawley, rat, plasma, 50 mg/kg, HCPT 50 mg/kg intragastric/oral, n = 6, Mean ± S.D.; for CL/F: read-out: CLz/F (oral clearance) (converted)
Description: Male Sprague–Dawley rats weighing 230–250 g were provided by Shanghai SLAC Laboratory Animal Co., Ltd (Shanghai, China). Rats were bred in a breeding room at 25 °C with 60 ± 5% humidity and a 12 h dark-light cycle. Tap water and normal chow were given ad libitum. All of the experimental animals were housed under the above conditions, for a 3-day acclimation period and fasted overnight before the experiments. All experimental procedures and protocols were reviewed and approved by the Animal Care and Use Committee of China–Japan Union Hospital of Jilin University and were in accordance with the National Institutes of Health guidelines regarding the principles of animal care.
Rats were divided into two groups of six animals each, with or without pre-treatment of verapamil. The pre-treatment of verapamil on the test group was at a dose of 10 mg/kg/day (dissolved directly in normal saline containing 0.5% methylcellulose at a concentration of 2 mg/mL) for 7 days. Next, 50 mg/kg HCPT was administrated orally. Blood samples (200 μL) were collected into heparinized tubes via the oculi choroidal vein at 0.083, 0.33, 0.5, 1, 2, 4, 6, 8, 10, 12, 24, and 36 h after the oral administration of […]. The blood samples were centrifuged at 3500 rpm for 5 min. The plasma samples that were obtained were stored at −40 °C until analysis.
To obtain 100 μL aliquot of plasma sample, 20 μL methanol and 180 μL internal standard methanol solution (2 ng/mL) were added and vortexed for 60 s to mix in a 1.5 mL polypropylene tube, and were centrifuged at 12,000 rpm for 10 min. The supernatant was removed into an injection vial, and a 3 μL aliquot was injected into the LC-MS/MS system for analysis.
The determination of HCPT was performed on an Agilent 1290 series liquid chromatography system and an Agilent 6470 triple-quadruple mass spectrometer (Palo Alto, CA). The HPLC/MS conditions and sample preparation were basically according to a validated HPLC method described before (Zhang et al. [2019]). The chromatographic analysis of HCPT was performed on a Waters X-Bridge C18 column (3.0 × 100 mm, i.d.; 3.5 μm, Waters Corporation, Milford, MA ) at room temperature (25 °C). The mobile phase was water (containing 0.1% formic acid) and acetonitrile (30:70, v: v) with isocratic elution at a flow rate of 0.2 mL/min, and the analysis time was 4 min.
The mass scan mode was positive MRM mode. The precursor ion and product ion are m/z 365.20→321.10 for HCPT and m/z 349.25→305.15 for IS. The collision energy for HCPT and IS were 30 and 20 eV, respectively. The MS/MS conditions were optimized as follows: fragmentor, 110 V; capillary voltage, 3.5 kV; Nozzle voltage, 500 V; nebulizer gas pressure (N2), 40 psig; drying gas flow (N2), 10 L/min; gas temperature, 350 °C; sheath gas temperature, 400 °C; sheath gas flow, 11 L/min.
Pharmacokinetic parameters, including the area under the plasma concentration–time curve (AUC), maximal plasma concentration (Cmax), the time for the maximal plasma concentration (Tmax), and the mean residence time (MRT), were calculated using the DAS 3.0 pharmacokinetic software (Chinese Pharmacological Association, Anhui, China).

[2] = Metabolic stability of HCPT in rat liver microsomes with or without verapamil; type: in vitro ADME; details: for microsomal CLint at 1 µM: read-out: intrinsic clearance rate
Description: The metabolic stability of HCPT was investigated in rat liver microsomes with or without verapamil. The detailed methods were similar to those reported before (Wang et al. [2017]; Yan et al. [2017]). Briefly, 30 μL rat liver microsome (20 mg/mL), 12 μL HCPT solution (100 μM) and 1113 μL PBS buffer (0.1 M, pH 7.4) were added to the centrifuge tubes on ice. After a 5-min preincubation at 37 °C, the NADPH-generating system (45 μL) was added into the microsomal suspension to initiate the reaction. Meanwhile, the effects of verapamil or ketoconazole (a positive CYP3A4 inhibitor) on the metabolic stability of HCPT were investigated by adding 10 μM of verapamil or ketoconazole (12 μL, final concentration of 0.1 μM) to rat liver microsomes and preincubating them for 30 min at 37 °C, followed by the addition of NADPH-generating system. Aliquots of 100 μL were collected from the reaction volumes at 0.083, 0.167, 0.33, 0.5, 1, 2, 4, 8, 12, 24, and 36 h after the addition of HCPT, and 200 μL ice-cold acetonitrile containing esculin was added to terminate the reaction. All the experiments were performed in triplicate. The subsequent sample preparation method was the same as the plasma sample preparation method, and the concentration of HCPT was determined by LC-MS.
The in vitro half-life (t1/2) was obtained using the equation: t1/2 = 0.693/k; V (μL/mg) = volume of incubation (μL)/protein in the incubation (mg); intrinsic clearance (Clint) (μL/min/mg protein) = V × 0.693/t1/2.

[3] = Bidirectional transport of HCPT in the Caco-2 cell transwell model with or without verapamil; details: human; for efflux ratio at 2 µM: Caco-2, pH 7.4, efflux ratio, Caco-2 transwell, HCPT 2 μM
Description: (§1) The Caco-2 cell line was obtained from the American Type Culture Collection (Manassas, VA), and it was performed according to the previous study (Liu et al. [2019]). The Caco-2 cells were cultured in DMEM high glucose medium containing 15% FBS, 1% NEAA, and 100 U/mL penicillin and streptomycin. The cells were cultured at 37 °C with 5% CO2. For transport studies, the cells at passage 40 were seeded on transwell polycarbonate insert filters (1.12 cm^2 surface, 0.4 μm pore size, 12 mm diameter; Corning Co-star Corporation, Corning, MA) in 12-well plates at a density of 1 × 10^5 cells/cm^2. Cells were allowed to grow for 21 days. For the first seven days, the medium was replaced every two days, and then daily. The transepithelial electrical resistance (TEER) of the monolayer cells was measured using Millicell ERS-2 (Millipore Corporation, Billerica, MA), and TEER exceeding 400 Ω·cm^2 was used for the flux experiment. […] The alkaline phosphatase activity was validated using an Alkaline Phosphatase Assay Kit. The qualified monolayers were used for transport studies.
(§2) The Caco-2 cell transwell model was employed to investigate the transport of HCPT in the presence or absence of verapamil. The cell monolayers were rinsed twice with warm (37 °C) Hanks’ balanced salt solution (HBSS) before the transport experiments. After that, the cells were incubated at 37 °C for 20 min. HCPT was added to either apical or basolateral side to incubate with the cell monolayers in fresh incubation medium for the indicated times at 37 °C, after preincubation. The volume of incubation medium on the apical and basolateral sides was 0.5 mL and 1.5 mL, respectively, and a 100 μL aliquot of the incubation solution was withdrawn at the indicated time points from the receiver compartment and replaced with the same volume of fresh pre-warmed HBSS buffer. The permeability of HCPT (2 μM) in all of the above conditions for both directions, i.e., from the apical (AP) side to the basolateral (BL) side and from the BL side to the AP side, was measured after incubation for 30, 60, 90, and 120 min at 37 °C. In addition, the efflux activity of P-gp was validated using a typical P-gp substrate digoxin (25 μM).
(§3) The apparent permeability coefficient (Papp) was calculated using the equation of Artursson and Karlsson: Papp=(ΔQ/Δt)×[1/(A×C0)] where Papp is the apparent permeability coefficient (cm/s), ΔQ/Δt (μmol/s) is the rate at which the compound appears in the receiver chamber, C0 (μmol/L) is the initial concentration of the compound in the donor chamber, and A (cm^2) represents the surface area of the cell monolayer. Data were collected from three separate experiments, and each was performed in triplicate.

[4] = system: Caco-2 cell monolayers; test: as above; details: Caco-2 transwell, digoxin 25 μM, with addition of verapamil
Description: as §1, §2, §3

[5] = system: P-gp; test: as above; details: human, Caco-2, efflux ratio, Caco-2 transwell, digoxin 25 μM (P-gp substrate validation), without verapamil
Description: as §1, §2, §3

[6] = pre-treatment of verapamil 10 mg/kg/day for 7 days
[7] = pH 7.4, with verapamil, final concentration 0.1 µM, in the presence of verapamil (preincubation 30 min at 37 °C)

Compound: CC[C@@]1(O)C(=O)OCc2c1cc1n(c2=O)Cc2cc3cc(O)ccc3nc2-1 [HCPT, Hydroxycamptothecin]
- AUC(0-t) ([1]; control (no verapamil)): 660 ± 100 ng·h/mL
- Cmax ([1]; control (no verapamil)): 92 ± 11.3 ng/mL
- MRT ([1]; control (no verapamil)): 9.61 ± 0.55 h
- Tmax ([1]; control (no verapamil)): 1.12 ± 0.14 h
- half-life ([1]; control (no verapamil)): 17.7 ± 3.6 h
- CL/F ([1]; control (no verapamil)): 1060 mL/min/kg
- AUC(0-t) [1, 6]: 1140 ± 290 ng·h/mL
- Cmax [1, 6]: 125 ± 13.5 ng/mL
- MRT [1, 6]: 11.4 ± 0.78 h
- Tmax [1, 6]: 0.89 ± 0.09 h
- half-life [1, 6]: 23 ± 6.71 h
- CL/F [1, 6]: 549 mL/min/kg
- half-life at 1 µM [2, 7]: 0.807 ± 0.0085 h
- microsomal CLint at 1 µM [2, 7]: 28.6 ± 0.3 µL/min/mg
- half-life at 1 µM ([2]; pH 7.4, without verapamil): 0.585 ± 0.00533 h
- microsomal CLint at 1 µM ([2]; pH 7.4, without verapamil): 39.5 ± 0.42 µL/min/mg
- Papp B→A at 2 μM ([3]; Caco-2, pH 7.4): 0.205 ×10⁻⁶ cm/s
- efflux ratio at 2 µM ([3]; in the presence of verapamil): 1.21
- efflux ratio at 2 µM ([3]; without verapamil): 1.82

Compound: C[C@H]1O[C@@H](O[C@H]2[C@@H](O)C[C@H](O[C@H]3[C@@H](O)C[C@H](O[C@H]4CC[C@@]5(C)[C@H](CC[C@@H]6[C@@H]5C[C@@H](O)[C@]5(C)[C@@H](C7=CC(=O)OC7)CC[C@]65O)C4)O[C@@H]3C)O[C@@H]2C)C[C@H](O)[C@@H]1O [digoxin]
- efflux ratio, effect of addition of verapamil [4]: abrogated it
- efflux ratio at 25 µM [5]: 11
